Reference: patent US20030167556A1, “Methods and devices for transdermal delivery of anti-aging compounds for treatment and prevention of facial or neck skin aging” (Consumers Choice Systems, Inc., priority 2002, published 2003)

Legend:
human skin = experiment: Ultra weak photon emission (UPE) assay of skin after UVA irradiation; type: in vivo; settings: orbital patch with 0.3% CoQ10 once or twice daily for 7 days, 50 mJ/cm^2 UVA, vs delivery vehicle alone
Source text: Oxidative events in human skin in vivo following delivery of CoQ10 via a facial patch or mask of the invention are detected, for example, by means of ultra weak photon emission assay [Sauermann et al., Oxidants & Antioxidants, Methods in Enzymology, L. Packer, ed., Academic Press, 300: 419-428 (1999), incorporated herein by reference]. In the basal state, cells emit low levels of photons. When UVA irradiation is applied there is an excited state with a large increase in the level of photons that decay with time. The level of photons emitted is an indication of the antioxidant status of the skin. If there is an increase in antioxidants, the excitation is less and the level of photons emitted will be reduced. The ultra weak photon emission (UPE) is measured after UVA irradiation in two age groups: (1) aged 18-25 years, (2) aged 60-72 years.

peri-orbital skin = experiment: Quantitative microtopography of skin casts, depth of deep wrinkles (photoaging); type: in vivo, human
Experimental: A significant adverse symptom of photoaging is the presence of deep wrinkles. […] In one exemplary protocol, an orbital patch containing CoQ10 in a delivery vehicle or carrier as described above is applied to one eye of a subject, and a control orbital patch containing a delivery vehicle alone is applied around the other eye. Casts are then prepared for quantitative microtopography [see, e.g., Hoppe, et al., J. Soc. Cosmetic Chemists 36: 105-123 (1985), incorporated herein by reference]. Photographs of the skin before treatment show deep wrinkles, which are characteristic of photoaging, whereas fine wrinkles are associated with chronological aging. Using microtopography to measure a reduction in the depth of wrinkles in aged skin, two important parameters can be calculated from the microtopography. They are: Rt which is the mean peak to valley measurement of a defined unit distance, and Rq which is the integrated area of the peaks and troughs. These measurements indicate the variation of the microtopography from a flat surface. […] In certain examples, treatment with an orbital patch containing 0.3% CoQ10 will results in at least a 25% reduction in the mean peak to valley depth of the skin and at least a 25% reduction in the Rq value, compared to controls.

facial skin = experiment: Corneocyte surface area (senile xerosis) after facial patch or mask treatment; type: in vivo; settings: patch or mask containing 0.3% CoQ10, once or twice daily for 7 days, vs delivery vehicle or carrier alone
Source text: Although the stratum corneum, the outermost layer of the epidermis, is continuously sloughed off and replaced in healthy individuals, it will display symptoms of aging in the underlying living cells in older subjects. The area of corneocytes, which make up the stratum corneum, is proportional to the time taken for the keratinocyte to differentiate and move from the basal layer to the stratum corneum. In aged skin, the time taken to move through the epidermis increases, and corneocytes become larger. The surface can develop fine lines and become dry and scaly (senile xerosis). As aging progresses, the surface area of corneocytes increases, and thus this value can be measured to determine the effectiveness of an anti-aging treatment (i.e., to decrease the transit time and corneocyte surface area).

[1] = intraduodenal, rats, with 1% (w/v) saline dispersion of polycarbophil; cited from earlier work
[2] = orbital patch containing 0.3% CoQ10, compared to controls

COC1=C(OC)C(=O)C(C/C=C(\C)CC/C=C(\C)CC/C=C(\C)CC/C=C(\C)CC/C=C(\C)CC/C=C(\C)CC/C=C(\C)CC/C=C(\C)CC/C=C(\C)CCC=C(C)C)=C(C)C1=O [CoQ10, CoEnzyme Q10]
levels of UPE compared to control level (human skin): significantly lower levels
reduction in the Rq value (peri-orbital skin; [2]): ≥ 25%
reduction in the mean peak to valley depth of the skin (Rt) (peri-orbital skin; [2]): ≥ 25%
depth of deep wrinkles (peri-orbital skin; patch containing 0.3% CoQ10 once daily, at least 2 hours each day, one week to six months, vs vehicle control): significantly reduced
corneocyte area over time (facial skin): significant decrease

9-desglycinamide, 8-arginine vasopressin [DGAVP]
increase in bioavailability compared to aqueous solution without polymer [1]: 3-5 fold
